# Measured values taken from patent publication US12551573B2, “Compositions and methods for the targeting of PCSK9” (Scribe Therapeutics Inc., priority 2022, dated 2026).
# Tested on: human PCSK9 locus
# Test: Secreted PCSK9 by ELISA (normalized to total cell count) in Huh7 cells transfected with mRNA and gRNA
# Format: cell-based
# Settings: for Secreted PCSK9 / Percent reduction in PCSK9 secretion / Average percent reduction in PCSK9 secretion: Huh7 cells, 6 days post-transfection; for Secreted PCSK9: normalized to total cell count; for Percent reduction in PCSK9 secretion: relative to non-targeting gRNA control; for Average percent reduction in PCSK9 secretion: averaged from the two doses
# Experimental: To assess PCSK9 secretion, seeded Huh7 cells were transfected with mRNA encoding a catalytically-active CasX 676, dXR1, or LTRP5-ADD-ZIM3 and a gRNA with scaffold 316 and spacer targeting either the B2M or PCSK9 locus. Media supernatant was harvested at 6, 18, 36, and 87 days post-transfection to assess level of PCSK9 secretion by ELISA. Levels of PCSK9 secretion were normalized to total cell count. As an additional control, PCSK9 secretion was also measured in the media supernatant harvested from wells containing untreated, naïve cells.
# The following three human hepatocyte cancer cell lines were used in this experiment: HepG2 cells, Hep3B cells, and Huh7 cells. ˜15,000 cells of each cell line were seeded per well; the next day, seeded cells were transfected with mRNA encoding a catalytically-active CasX 676, dXR1, or LTRP5-ADD-ZIM3 and a gRNA with scaffold 316 and spacer targeting either the B2M or PCSK9 locus (see Table 23 for specific spacers and sequences). Media supernatant was harvested at 4 days post-transfection to assess level of PCSK9 secretion by ELISA, and levels of PCSK9 secretion were normalized to total cell count and illustrated in FIGS. 11A-11C. Culturing of treated Huh7 cells continued, and media supernatant was harvested at 14 and 27 days post-transfection for measuring PCSK9 secretion by ELISA. As an additional experimental control, PCSK9 secretion was also measured in the media supernatant harvested from wells containing untreated, naïve cells.
# To assess PCSK9 secretion, seeded Huh7 cells were co-transfected with mRNA encoding for LTRP5-ADD-ZIM3 and a gRNA with scaffold 316 and spacer targeting the PCSK9 locus using Lipofectamine™ 3000. Two doses of total RNA input at a 2:1 mass ratio of mRNA to gRNA were used for screening: 50 ng mRNA: 25 ng gRNA and 25 ng mRNA: 12.5 ng gRNA. Media supernatant was harvested at 6 days post-transfection to assess level of PCSK9 secretion by ELISA (Table 74). Levels of PCSK9 secretion were normalized to total cell count. As an additional control, PCSK9 secretion was also measured in the media supernatant harvested from cells transfected with mRNA encoding for mScarlet.
# [1] = 25 ng mRNA:12.5 ng gRNA, paired with LTRP5-ADD-ZIM3 mRNA
# [2] = 50 ng mRNA:25 ng gRNA, paired with LTRP5-ADD-ZIM3 mRNA
# [3] = paired with LTRP5-ADD-ZIM3 mRNA
sequence,measurement,setting,value
"AAACUUAGCCUGGACCCCCU (listed as RNA, chemistry not given here) [spacer 6.140, Promoter]",Secreted PCSK9,[1],59.94 ng/mL
same,Percent reduction in PCSK9 secretion,[1],15.87%
same,Secreted PCSK9,[2],61.68 ng/mL
same,Percent reduction in PCSK9 secretion,[2],25.04%
same,Average percent reduction in PCSK9 secretion,[3],20.45%
"ACUGGCCUUAACCUGGCAGC (listed as RNA, chemistry not given here) [spacer 6.141, Promoter]",Secreted PCSK9,[1],12.58 ng/mL
same,Percent reduction in PCSK9 secretion,[1],82.34%
same,Secreted PCSK9,[2],13.86 ng/mL
same,Percent reduction in PCSK9 secretion,[2],83.16%
same,average reduction in secreted PCSK9 levels,"Huh7, LTRP5-ADD-ZIM3 mRNA + gRNA scaffold 316 (v1), 6 days, averaged from two doses (50 ng mRNA:25 ng gRNA, 25 ng:12.5 ng), relative to non-targeting gRNA",82.75%
same,Average percent reduction in PCSK9 secretion,[3],82.75%
"ACUUUGUUUGCAAAGACCUC (listed as RNA, chemistry not given here) [spacer 6.117, Promoter]",Secreted PCSK9,[1],98.05 ng/mL
same,Percent reduction in PCSK9 secretion,[1],37.62%
same,Secreted PCSK9,[2],68.98 ng/mL
same,Percent reduction in PCSK9 secretion,[2],16.16%
same,Average percent reduction in PCSK9 secretion,[3],10.73%
"AGAAAGAGCAAGCCUCAUGU (listed as RNA, chemistry not given here) [spacer 6.125, Promoter]",Secreted PCSK9,[1],46.11 ng/mL
same,Percent reduction in PCSK9 secretion,[1],35.28%
same,Secreted PCSK9,[2],24.93 ng/mL
same,Percent reduction in PCSK9 secretion,[2],69.7%
same,Average percent reduction in PCSK9 secretion,[3],52.49%
"AGAAAUCAACUGGACAAGCA (listed as RNA, chemistry not given here) [spacer 6.128, Promoter]",Secreted PCSK9,[1],62.29 ng/mL
same,Percent reduction in PCSK9 secretion,[1],12.57%
same,Secreted PCSK9,[2],42.21 ng/mL
same,Percent reduction in PCSK9 secretion,[2],48.7%
same,Average percent reduction in PCSK9 secretion,[3],30.63%
"AGAAGAUUCAAUUUGCAAAG (listed as RNA, chemistry not given here) [spacer 6.132, Promoter]",Secreted PCSK9,[1],75.01 ng/mL
same,Percent reduction in PCSK9 secretion,[1],5.29%
same,Secreted PCSK9,[2],56.68 ng/mL
same,Percent reduction in PCSK9 secretion,[2],31.11%
same,Average percent reduction in PCSK9 secretion,[3],12.91%
"AGCCCAGUUAGGAUUUGGGA (listed as RNA, chemistry not given here) [spacer 6.149, Promoter]",Secreted PCSK9,[1],38.33 ng/mL
same,Percent reduction in PCSK9 secretion,[1],46.21%
same,Secreted PCSK9,[2],21.18 ng/mL
same,Percent reduction in PCSK9 secretion,[2],74.26%
same,Average percent reduction in PCSK9 secretion,[3],60.23%
"AGGAGCAGCUAGUUGGUAAG (listed as RNA, chemistry not given here) [spacer 6.139, Promoter]",Secreted PCSK9,[1],25.45 ng/mL
same,Percent reduction in PCSK9 secretion,[1],64.28%
same,Secreted PCSK9,[2],15.03 ng/mL
same,Percent reduction in PCSK9 secretion,[2],81.73%
same,Average percent reduction in PCSK9 secretion,[3],73.01%
"AGGGAUUUAUACUACAAAGA (listed as RNA, chemistry not given here) [spacer 6.138, Promoter]",Secreted PCSK9,[1],30.87 ng/mL
same,Percent reduction in PCSK9 secretion,[1],56.67%
same,Secreted PCSK9,[2],18.99 ng/mL
same,Percent reduction in PCSK9 secretion,[2],76.92%
same,repression of PCSK9 secretion by spacer,"Huh7, paired with LTRP5-ADD-ZIM3 mRNA, scaffold 316, days 4, 14, 27",most effective repression of PCSK9 secretion
same,Average percent reduction in PCSK9 secretion,[3],66.79%
"CAGUACGUUCCAGGCAUUCA (listed as RNA, chemistry not given here) [spacer 6.171, Intron 1]",Secreted PCSK9,[1],55.95 ng/mL
same,Percent reduction in PCSK9 secretion,[1],21.46%
same,Secreted PCSK9,[2],52.41 ng/mL
same,Percent reduction in PCSK9 secretion,[2],36.3%
same,Average percent reduction in PCSK9 secretion,[3],28.88%
"CAGUAUCGACAGCCCUUCCA (listed as RNA, chemistry not given here) [spacer 6.124, Promoter]",Secreted PCSK9,[1],30.59 ng/mL
same,Percent reduction in PCSK9 secretion,[1],57.06%
same,Secreted PCSK9,[2],16.54 ng/mL
same,Percent reduction in PCSK9 secretion,[2],79.9%
same,Average percent reduction in PCSK9 secretion,[3],68.48%
"CCUUUGUUUCUUCCCAGUAU (listed as RNA, chemistry not given here) [spacer 6.122, Promoter]",Secreted PCSK9,[1],86.06 ng/mL
same,Percent reduction in PCSK9 secretion,[1],20.79%
same,Secreted PCSK9,[2],79.36 ng/mL
same,Percent reduction in PCSK9 secretion,[2],3.54%
same,Average percent reduction in PCSK9 secretion,[3],8.63%
"CCUUUUCAUCCUCCUGCCUG (listed as RNA, chemistry not given here) [spacer 6.126, Promoter]",Secreted PCSK9,[1],44.82 ng/mL
same,Percent reduction in PCSK9 secretion,[1],37.09%
same,Secreted PCSK9,[2],23.48 ng/mL
same,Percent reduction in PCSK9 secretion,[2],71.46%
same,Average percent reduction in PCSK9 secretion,[3],54.27%
"CGCGCCCUGCUCCUGAACUU (listed as RNA, chemistry not given here) [spacer 6.160, Exon 1]",Secreted PCSK9,[1],48.67 ng/mL
same,Percent reduction in PCSK9 secretion,[1],31.69%
same,Secreted PCSK9,[2],20.63 ng/mL
same,Percent reduction in PCSK9 secretion,[2],74.93%
same,Average percent reduction in PCSK9 secretion,[3],53.31%
"CGGGGUUGGGAGACCCGGAG (listed as RNA, chemistry not given here) [spacer 6.169, Intron 1]",Secreted PCSK9,[1],62.55 ng/mL
same,Percent reduction in PCSK9 secretion,[1],12.2%
same,Secreted PCSK9,[2],66.39 ng/mL
same,Percent reduction in PCSK9 secretion,[2],19.3%
same,Average percent reduction in PCSK9 secretion,[3],15.75%
"CUCGGAAUCUGCUGUGCAUC (listed as RNA, chemistry not given here) [spacer 6.120, Promoter]",Secreted PCSK9,[1],47.97 ng/mL
same,Percent reduction in PCSK9 secretion,[1],32.67%
same,Secreted PCSK9,[2],21.43 ng/mL
same,Percent reduction in PCSK9 secretion,[2],73.95%
same,Average percent reduction in PCSK9 secretion,[3],53.31%
"CUCUGCGCGUAAUCUGACGC (listed as RNA, chemistry not given here) [spacer 6.151, Promoter]",Secreted PCSK9,[1],66.42 ng/mL
same,Percent reduction in PCSK9 secretion,[1],6.77%
same,Secreted PCSK9,[2],53.44 ng/mL
same,Percent reduction in PCSK9 secretion,[2],35.05%
same,Average percent reduction in PCSK9 secretion,[3],20.91%
"GAAGUCUCACUGGUCAGCAG (listed as RNA, chemistry not given here) [spacer 6.146, Promoter]",Secreted PCSK9,[1],20.34 ng/mL
same,Percent reduction in PCSK9 secretion,[1],71.45%
same,Secreted PCSK9,[2],40.84 ng/mL
same,Percent reduction in PCSK9 secretion,[2],50.36%
same,Average percent reduction in PCSK9 secretion,[3],60.9%
"GAAUCAAUCCUACUGUGGAC (listed as RNA, chemistry not given here) [spacer 6.143, Promoter]",Secreted PCSK9,[1],22.33 ng/mL
same,Percent reduction in PCSK9 secretion,[1],68.66%
same,Secreted PCSK9,[2],38.69 ng/mL
same,Percent reduction in PCSK9 secretion,[2],52.97%
same,Average percent reduction in PCSK9 secretion,[3],60.81%
"GAAUUCUAUGGUAGGCACAA (listed as RNA, chemistry not given here) [spacer 6.134, Promoter]",Secreted PCSK9,[1],57.45 ng/mL
same,Percent reduction in PCSK9 secretion,[1],19.37%
same,Secreted PCSK9,[2],43.79 ng/mL
same,Percent reduction in PCSK9 secretion,[2],46.77%
same,Average percent reduction in PCSK9 secretion,[3],33.07%
"GAGCAGGCCAUUUCACUCGG (listed as RNA, chemistry not given here) [spacer 6.119, Promoter]",Secreted PCSK9,[1],84.54 ng/mL
same,Percent reduction in PCSK9 secretion,[1],18.66%
same,Secreted PCSK9,[2],70.37 ng/mL
same,Percent reduction in PCSK9 secretion,[2],14.47%
same,Average percent reduction in PCSK9 secretion,[3],2.1%
